These results are taken from patent publication US10294234B2, “HIV inhibitor compounds” (priority 2017, dated 2019).

pEC50, pKi: −log10 of the molar value.

Data set [1] can be described thus: in vivo. The note with it: rat, in vivo. Put shortly: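 Male SD rats (n=3/group, 0.27–0.32 kg), fasted overnight, given 0.5 or 1.0 mg/kg by 30-min IV infusion, or by oral gavage. Serial plasma samples (EDTA-K2) over 24 h measured by LC/MS/MS; non-compartmental PK analysis.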
Data set [2] relates to HIV-1 (IIIB) in MT-4 cells. In words: MT-4 HIV High Resolution Antiviral Assay. It counts as cell-based. On the procedure:
Compounds were tested in a high-throughput 384-well assay format for their ability to inhibit the replication of HIV-1 (IIIB) in MT-4 cells. Compounds were serially diluted (1:3) in DMSO on 384-well polypropylene plates and further diluted 200-fold into complete RPMI media (10% FBS, 1% P/S) using the Biotek Micro Flow and Agilent ECHO acoustic dispenser. Each plate contained up to 8 test compounds, with negative (No Drug Control) and 5 uM AZT positive controls. MT-4 cells were pre-infected with 10 uL of either RPMI (mock-infected) or a fresh 1:250 dilution of an HIV-1 (IIIB) concentrated virus stock. Infected and uninfected MT-4 cells were further diluted in complete RPMI media and added to each plate using a Micro Flow dispenser. After 5 days incubation in a humidified and temperature controlled incubator (37° C.), Cell Titer Glo (Promega) was added to the assay plates to quantify the amount of luciferase. EC50 and CC50 values were defined as the compound concentration that causes a 50% decrease in luminescence signal, and were calculated using a sigmoidal dose-response model to generate curve fits.
(§1) MT-4 HIV High Resolution Antiviral Assay
(§2) Assay protocol is identical to that described for the MT-4 antiviral assay with the following changes: Each drug is run in 2 series of quadruplicates with different starting concentrations for each series and 19 1.5 fold dilutions performed across the plate. […] Data is analyzed and Hill coefficients determined in Graph Pad Prism (San Diego, Calif.). EC95s were determined by the formula EC95=(19)^I/hill coefficient×EC50. HD values were determined for certain compounds and reported in Table 5 below as an illustrative example.

In the next data set the target is recombinant HIV protease (Human immunodeficiency virus type 1 group M subtype B, UniProt P04585). In words: biochemical.
Data set [3] deals with HIV-1 (IIIB) in MT-4 cells. In words: Protein adjusted EC95 (high resolution antiviral assay with equilibrium dialysis plasma protein binding). It counts as cell-based. The note with it: EC95 adjusted for plasma protein binding (10% plasma vs cell culture media). On the procedure:
as §1, §2
Equilibrium Dialysis Assay
Pooled plasma (from at least 3 males and 3 females) was from Bioreclamation IVT. Sodium EDTA was used as the anticoagulant. 10% plasma was diluted in 0.133M phosphate buffer consisted of 1.5% (w/v) Sodium EDTA.
RPMI cell culture media consisted 10% FBS was provided by biology department, Gilead Sciences, Inc.
Plasma Protein Binding Assay:
Studies were conducted in duplicate or triplicate using a Dianorm Equilibrium Dialyser (Harvard Apparatus, Holliston Mass.) with each cell consisting of a semipermeable membrane (2.4 cm working diameter) separating two 1 mL PTFE half-cells (Weder HG, Schildknecht J, Kesselring P. A new equilibrium dialyzing system. American Laboratory. 1971; 10: 15-21). Prior to the study, the dialysis membrane was soaked for approximately one hour in 0.133 M phosphate buffer, pH 7.4. 10% plasma and cell culture media spiked with 1 μM compound (1 mL) were placed into opposite sides of the assembled dialysis cells and the dialysis cells were then rotated slowly in a 37° C. water bath. After the equilibration period, matrix-containing samples from both sides were drained into pre-weighed polypropylene tubes. Post-dialysis 10% plasma samples were transferred into centrifuge tubes containing 1 mL of blank cell culture media. Post-dialysis cell culture media samples were transferred into centrifuge tubes containing 1 mL of blank 10% plasma. All samples weights were measured and recorded for calculations of volume shift and recovery. […]

For data set [4] the following is noted: 1 uM compound, NADPH. The essentials:
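LC/MS/MS read-out of parent compound remaining; in vitro t1/2 converted to Clint. Incubation: 1 uM compound, 0.5 mg/mL dog/rat/human liver microsomes, NADPH-regenerating system, duplicate sets, time-points 2–65 minutes.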

The nature of data set [5]: in vivo. The protocol: Pharmacokinetic Profiling Dog PK
Each dosing group consisted of three non-naïve male beagle dogs. At dosing, the animals weighed between 9 to 12 kg. The animals were fasted overnight prior to dose administration and up to four hours after dosing. The test article was administered by intravenous infusion over 30-minutes. The rate of infusion was adjusted according to the body weight of each animal to deliver a dose of 0.5 or 1.0 mg/kg. For the oral dosing group, the test article was administered by oral gavage at a dose volume of 2 mL/kg.
Serial venous blood samples (approximately 1.0 mL each) were collected at predose and 0.25, 0.48, 0.58, 0.75, 1.0, 1.5, 2, 4, 8, 12 and 24 hours post dose from each animal for the IV dosing group; blood samples were collected at predose, 0.25, 0.50, 1, 2 4, 6, 8,12 and 24 hours post dose for the oral dosing group. The blood samples were collected into Vacutainer™ tubes containing EDTA-K2 as the anti-coagulant and were immediately placed on wet ice pending centrifugation for plasma. An LC/MS/MS method was used to measure the concentration of test compound in plasma. Non-compartmental pharmacokinetic analysis was performed on the plasma concentration-time data. VSS=apparent volume of distribution, t1/2=half life, F=oral bioavailability.

Where [6] appears, read: male beagle dogs, IV infusion over 30 minutes, 0.5 or 1.0 mg/kg.

Method for recombinant HIV protease: Inhibitor potency was measured using an enzymatic assay with a fluorogenic readout. […] After a 20-minute pre-incubation, the enzymatic reaction was initiated by the addition of the fluorogenic substrate (2-aminobenzoyl)Thr-Ile-Nle-(p-nitro)Phe-Gln-Arg (Bachem) to a final concentration of 40 μM. The total volume of the assay solution was 100 µL. The reaction was measured over 20 minutes on a Tecan Infinite M1000 plate reader using an excitation wavelength of 320 nm and a detection wavelength of 420 nm. The slopes of the progress curves were the measure of reaction rates.

For the compound `COC(=O)N[C@H](C(=O)N[C@@H](Cc1ccccc1)[C@@H](O)CN(Cc1ccc(-c2ccccn2)cc1)NC(=O)[C@@H](NC(=O)OC)C(C)(C)C)C(C)(C)C` [atazanavir, methyl N-[(2S)-1-[2-[(2S,3S)-2-hydroxy-3-[[(2S)-2-(methoxycarbonylamino)-3,3-dimethylbutanoyl]amino]-4-phenylbutyl]-2-[(4-pyridin-2-ylphenyl)methyl]hydrazinyl]-3,3-dimethyl-1-oxobutan-2-yl]carbamate, reference compound], the Vd (usually a proportionality between amount in the body and measured concentration, not a real space) in the data set “in vivo [1]” (male, SD, iv) stood at 0.87 L/kg. Moreover, the “RAT PO F” value in the data set “in vivo [1]” (male, SD, po, 5 mg/kg) amounted to 38%. Moreover, in the data set “in vivo [1]” (iv), the “RAT IV CL” value was 2.7 L/h/kg and the “RAT IV T1/2” value came to 22.2 min. For the same compound, the pEC50 (usually the EC50 on a negative log10 scale, so that one unit is a factor of ten) in data set [2] (Human immunodeficiency virus 1, IIIB, MT4, high resolution assay, 40 data points, MT-4 cells, read-out: EC50) is 8.01. Further, the EC95 (usually the point of the concentration-response curve where the effect stands at 95%) in data set [2] (calculated from Hill coefficient and EC50) is 25 nM. For the same compound, in data set [2] (high resolution assay, Graph Pad Prism), the Hill-coefficient worked out at 3.1. In addition, on recombinant HIV protease, the pKi (in general, the negative decadic logarithm of the Ki, by convention in mol/L) was 10.46. In addition, the “Protein Adjusted EC95” value in data set [3] came out at 75 nM. Also, the “Dog. Pred. Cl.” value in data set [4] (dog liver microsomes 0.5 mg/mL) was 1.4 L/H/kg. For the same compound, the “Human Pred Cl.” value in data set [4] (human liver microsomes 0.5 mg/mL) stood at 1.07 L/H/kg. For the same compound, the “Rat. Pred. Cl.” value in data set [4] (rat liver microsomes 0.5 mg/mL) is 3.7 L/H/kg. Besides, in “in vivo [5]” (setting [6]), the “DOG IV CL” value was determined as 1.0 L/h/kg and the “DOG IV T1/2” value was found to be 78 min. The “DOG PO F” value in “in vivo [5]” (male beagle dogs, oral gavage, PO dose 10 mg/kg) stood at 48%. For the same compound, the Vd in the data set “in vivo [5]” (male, beagle, dog, plasma, iv) was 0.9 L/kg.
